Assay results from ChEMBL document CHEMBL1201862, “PubChem BioAssay data set” (2004).
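Briefly, cells in 96-well plates were exposed to five compound concentrations for 48 h, and endpoints were estimated by linear interpolation. Abbreviation: GI50, concentration required for 50% inhibition of growth.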 The source made the active and inactive calls. Cut-off read from the data, not from the text of the source: active = GI50 up to about 1.1 µM and inactive = higher.

How the values were obtained:
Test in all cases: NCI-60 cell line screen, 48 h
SR = tested on: SR
SN12C = tested on: SN12C
MCF7 = tested on: MCF7
K562 = tested on: K562
OVCAR-4 = tested on: OVCAR-4
BT-549 = tested on: BT-549
OVCAR-8 = tested on: OVCAR-8
LOX IMVI = tested on: LOX IMVI
Hs-578T = tested on: Hs-578T
RPMI-8226 = tested on: RPMI-8226
SK-MEL-5 = tested on: SK-MEL-5
HT-29 = tested on: HT-29
NCI-H460 = tested on: NCI-H460
SNB-19 = tested on: SNB-19
TK-10 = tested on: TK-10
HCT-116 = tested on: HCT-116
SK-MEL-2 = tested on: SK-MEL-2
UACC-62 = tested on: UACC-62
MDA-MB-231 = tested on: MDA-MB-231

Compound | GI50 (SR) | GI50 (SN12C) | GI50 (MCF7) | GI50 (K562) | GI50 (OVCAR-4) | GI50 (BT-549) | GI50 (OVCAR-8) | GI50 (LOX IMVI) | GI50 (Hs-578T) | GI50 (RPMI-8226) | GI50 (SK-MEL-5) | GI50 (HT-29) | GI50 (NCI-H460) | GI50 (SNB-19) | GI50 (TK-10) | GI50 (HCT-116) | GI50 (SK-MEL-2) | GI50 (UACC-62) | GI50 (MDA-MB-231)
COC(=O)CSc1cc(Cl)c(C)cc1S(=O)(=O)Nc1n[nH]c(N)n1 | > 10 µM (inactive) | > 10 µM (inactive) | > 10 µM (inactive) | > 10 µM (inactive) | > 10 µM (inactive) | > 10 µM (inactive) | > 10 µM (inactive) | > 10 µM (inactive) | > 10 µM (inactive) | > 10 µM (inactive) | > 10 µM (inactive) | > 10 µM (inactive) | > 10 µM (inactive) | > 10 µM (inactive) | > 10 µM (inactive) | > 10 µM (inactive) | > 10 µM (inactive) | – | –
Cc1nc2c(n1CC(C)C)C(=O)c1ccccc1C2=O | 41.6 µM (inactive) | 37.1 µM (inactive) | – | 29.9 µM (inactive) | 43.4 µM (inactive) | – | 35.5 µM (inactive) | 29.3 µM (inactive) | – | – | 18.8 µM (inactive) | 34 µM (inactive) | 23.4 µM (inactive) | 51.5 µM (inactive) | > 100 µM (inactive) | 20.8 µM (inactive) | 25.5 µM (inactive) | 20.7 µM (inactive) | –
N#Cc1c(-c2cccc(Br)c2)cc(-c2ccc(Cl)cc2)nc1N | 19.1 µM (inactive) | 19.1 µM (inactive) | 26.2 µM (inactive) | 25.6 µM (inactive) | 0.514 µM (active) | 33 µM (inactive) | 32 µM (inactive) | 15.8 µM (inactive) | 19.1 µM (inactive) | 17 µM (inactive) | 15.2 µM (inactive) | 18.7 µM (inactive) | 21.2 µM (inactive) | 18.7 µM (inactive) | 18.7 µM (inactive) | 16.1 µM (inactive) | 11.6 µM (inactive) | 15.3 µM (inactive) | –
Nc1ccc(-c2nc3ccc(Cc4ccc5nc(-c6ccc(N)cc6)oc5c4)cc3o2)cc1 | 12.7 µM (inactive) | > 100 µM (inactive) | > 100 µM (inactive) | 44.5 µM (inactive) | > 100 µM (inactive) | – | > 100 µM (inactive) | > 100 µM (inactive) | – | > 100 µM (inactive) | – | > 100 µM (inactive) | > 100 µM (inactive) | > 100 µM (inactive) | > 100 µM (inactive) | > 100 µM (inactive) | > 100 µM (inactive) | > 100 µM (inactive) | > 100 µM (inactive)
CC1CC[C@@H](C(C)C)[C@H](Oc2nnc(C3OC(CO)C(O)C3O)o2)C1 (some centres undefined) | – | > 100 µM (inactive) | > 100 µM (inactive) | > 100 µM (inactive) | > 100 µM (inactive) | > 100 µM (inactive) | > 100 µM (inactive) | > 100 µM (inactive) | – | > 100 µM (inactive) | > 100 µM (inactive) | > 100 µM (inactive) | > 100 µM (inactive) | > 100 µM (inactive) | > 100 µM (inactive) | > 100 µM (inactive) | > 100 µM (inactive) | > 100 µM (inactive) | > 100 µM (inactive)
COC1OC(C)C(OC(=O)C(C)(C)C)C(C)(O)C1O (centres undefined) | > 100 µM (inactive) | > 100 µM (inactive) | – | > 100 µM (inactive) | > 100 µM (inactive) | – | > 100 µM (inactive) | > 100 µM (inactive) | – | > 100 µM (inactive) | > 100 µM (inactive) | > 100 µM (inactive) | > 100 µM (inactive) | > 100 µM (inactive) | > 100 µM (inactive) | > 100 µM (inactive) | – | > 100 µM (inactive) | –
COC(=O)C(CCCC1(c2ccccc2)OCCO1)C(C)=O (centres undefined) | 85.1 µM (inactive) | > 100 µM (inactive) | – | 91.8 µM (inactive) | > 100 µM (inactive) | – | > 100 µM (inactive) | > 100 µM (inactive) | – | – | 66.4 µM (inactive) | > 100 µM (inactive) | > 100 µM (inactive) | > 100 µM (inactive) | > 100 µM (inactive) | > 100 µM (inactive) | > 100 µM (inactive) | – | –
COC(=O)C(=O)c1cc2ccccc2n1S(=O)(=O)c1ccccc1 | > 100 µM (inactive) | > 100 µM (inactive) | > 100 µM (inactive) | > 100 µM (inactive) | > 100 µM (inactive) | > 100 µM (inactive) | > 100 µM (inactive) | > 100 µM (inactive) | – | – | > 100 µM (inactive) | > 100 µM (inactive) | > 100 µM (inactive) | > 100 µM (inactive) | > 100 µM (inactive) | > 100 µM (inactive) | > 100 µM (inactive) | > 100 µM (inactive) | > 100 µM (inactive)
COC(=O)C1C2CC3C1C3C2C(=O)OC (centres undefined) | – | > 100 µM (inactive) | > 100 µM (inactive) | > 100 µM (inactive) | > 100 µM (inactive) | – | > 100 µM (inactive) | > 100 µM (inactive) | > 100 µM (inactive) | – | > 100 µM (inactive) | > 100 µM (inactive) | > 100 µM (inactive) | > 100 µM (inactive) | > 100 µM (inactive) | > 100 µM (inactive) | > 100 µM (inactive) | > 100 µM (inactive) | > 100 µM (inactive)
CN(/N=C/c1ccc(C(=O)O)cc1)C1=NCCCCN1 | > 100 µM (inactive) | > 100 µM (inactive) | > 100 µM (inactive) | > 100 µM (inactive) | > 100 µM (inactive) | > 100 µM (inactive) | > 100 µM (inactive) | > 100 µM (inactive) | – | > 100 µM (inactive) | > 100 µM (inactive) | > 100 µM (inactive) | > 100 µM (inactive) | > 100 µM (inactive) | – | > 100 µM (inactive) | – | > 100 µM (inactive) | > 100 µM (inactive)
O=C1OCC2=C1C(c1ccc3c(c1)OCO3)c1cc3c(cc1O2)OCO3 (centres undefined) | 0.19 µM (active) | 1.3 µM (inactive) | 0.341 µM (active) | 0.269 µM (active) | 7.94 µM (inactive) | – | 1.11 µM (active) | 0.507 µM (active) | 0.865 µM (active) | 0.378 µM (active) | 0.486 µM (active) | 0.346 µM (active) | 0.522 µM (active) | 2.1 µM (inactive) | 5.81 µM (inactive) | 0.436 µM (active) | 0.375 µM (active) | 0.364 µM (active) | 0.813 µM (active)
Cc1ccc(Cc2nn(C)c(=O)n2N)cc1 | – | > 100 µM (inactive) | > 100 µM (inactive) | > 100 µM (inactive) | > 100 µM (inactive) | > 100 µM (inactive) | > 100 µM (inactive) | > 100 µM (inactive) | – | > 100 µM (inactive) | > 100 µM (inactive) | > 100 µM (inactive) | > 100 µM (inactive) | > 100 µM (inactive) | > 100 µM (inactive) | > 100 µM (inactive) | > 100 µM (inactive) | > 100 µM (inactive) | > 100 µM (inactive)
Cc1ccc2c(O)cc(-c3ccc(Cl)s3)nc2n1 | 0.15 µM (active) | 1.55 µM (inactive) | 0.422 µM (active) | 0.728 µM (active) | 16.3 µM (inactive) | – | 1.44 µM (inactive) | 0.662 µM (active) | 1.62 µM (inactive) | 0.308 µM (active) | 0.391 µM (active) | 1.39 µM (inactive) | 0.564 µM (active) | 1.43 µM (inactive) | 8.87 µM (inactive) | 0.552 µM (active) | 5.18 µM (inactive) | 0.643 µM (active) | 5.89 µM (inactive)
COC(=O)c1sc2ncc3c(c2c1N)CCCCCC3 | > 100 µM (inactive) | > 100 µM (inactive) | > 100 µM (inactive) | > 100 µM (inactive) | > 100 µM (inactive) | > 100 µM (inactive) | > 100 µM (inactive) | > 100 µM (inactive) | – | > 100 µM (inactive) | > 100 µM (inactive) | > 100 µM (inactive) | > 100 µM (inactive) | > 100 µM (inactive) | > 100 µM (inactive) | > 100 µM (inactive) | > 100 µM (inactive) | > 100 µM (inactive) | > 100 µM (inactive)
COc1ccc(C(=O)/C=C/c2ccc(OCCCCCCCCCCOc3ccc(/C=C/C(=O)c4ccc(OC)c(OC)c4)cc3)cc2)c(OC)c1 | > 100 µM (inactive) | > 100 µM (inactive) | > 100 µM (inactive) | > 100 µM (inactive) | > 100 µM (inactive) | – | > 100 µM (inactive) | – | 76 µM (inactive) | > 100 µM (inactive) | > 100 µM (inactive) | > 100 µM (inactive) | > 100 µM (inactive) | > 100 µM (inactive) | > 100 µM (inactive) | > 100 µM (inactive) | > 100 µM (inactive) | > 100 µM (inactive) | > 100 µM (inactive)
CCOC(=O)c1sc2c(c1OC(=O)c1cccs1)c(=O)n(-c1ccccc1)c(=S)n2-c1ccccc1 | 0.0151 µM (active) | 18.3 µM (inactive) | 14.9 µM (inactive) | 19.9 µM (inactive) | 11.7 µM (inactive) | – | 18.2 µM (inactive) | 15.7 µM (inactive) | 23.7 µM (inactive) | 7.55 µM (inactive) | 13.5 µM (inactive) | 3.9 µM (inactive) | 3.63 µM (inactive) | 28.6 µM (inactive) | 25 µM (inactive) | 5.3 µM (inactive) | – | 15.3 µM (inactive) | 14.9 µM (inactive)
CCOC1=NC(O)c2cccn2-c2sccc21 (centres undefined) | 34.2 µM (inactive) | > 100 µM (inactive) | > 100 µM (inactive) | 57.8 µM (inactive) | > 100 µM (inactive) | – | > 100 µM (inactive) | – | – | 26.7 µM (inactive) | 96.4 µM (inactive) | > 100 µM (inactive) | > 100 µM (inactive) | > 100 µM (inactive) | 82.4 µM (inactive) | > 100 µM (inactive) | > 100 µM (inactive) | > 100 µM (inactive) | > 100 µM (inactive)
